Measured values reported in patent publication US20240384268A1, “Oligonucleotides” (Hudson Institute of Medical Research, priority 2021, published 2024).

Target: T1, TLR8 (Homo sapiens, UniProt Q9NR97)
T1 sequence (Q9NR97 27-1041): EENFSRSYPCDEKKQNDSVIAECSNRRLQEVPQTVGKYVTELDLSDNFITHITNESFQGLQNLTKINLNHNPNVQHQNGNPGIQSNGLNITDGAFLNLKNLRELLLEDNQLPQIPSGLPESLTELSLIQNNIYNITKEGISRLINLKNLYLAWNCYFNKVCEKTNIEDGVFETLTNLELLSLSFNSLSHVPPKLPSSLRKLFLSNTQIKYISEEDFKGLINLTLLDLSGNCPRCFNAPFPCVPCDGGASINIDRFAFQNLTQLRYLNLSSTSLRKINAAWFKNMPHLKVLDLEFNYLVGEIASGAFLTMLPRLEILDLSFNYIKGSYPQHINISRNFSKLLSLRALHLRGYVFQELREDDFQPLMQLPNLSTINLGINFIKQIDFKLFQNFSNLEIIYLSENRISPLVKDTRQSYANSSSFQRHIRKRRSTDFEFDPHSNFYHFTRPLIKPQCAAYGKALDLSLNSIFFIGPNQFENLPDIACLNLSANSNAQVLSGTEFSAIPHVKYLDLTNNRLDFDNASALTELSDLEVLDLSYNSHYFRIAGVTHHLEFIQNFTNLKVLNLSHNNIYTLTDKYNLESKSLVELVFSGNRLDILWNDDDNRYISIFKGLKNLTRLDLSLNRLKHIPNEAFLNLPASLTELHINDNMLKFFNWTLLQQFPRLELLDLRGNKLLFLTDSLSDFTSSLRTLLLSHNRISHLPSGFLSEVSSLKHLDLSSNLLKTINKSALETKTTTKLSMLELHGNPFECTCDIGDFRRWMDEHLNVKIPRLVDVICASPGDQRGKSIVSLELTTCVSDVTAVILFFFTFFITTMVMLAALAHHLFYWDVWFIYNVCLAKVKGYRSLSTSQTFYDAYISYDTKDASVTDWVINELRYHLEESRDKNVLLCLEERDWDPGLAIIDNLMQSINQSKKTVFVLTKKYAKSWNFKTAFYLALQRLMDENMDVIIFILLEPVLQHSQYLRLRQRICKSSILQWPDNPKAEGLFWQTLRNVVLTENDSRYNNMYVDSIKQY
Assay: HEK-TLR8 NF-κB-luciferase reporter, R848 or Motolimod stimulation (potentiation or inhibition)
Assay type: cell-based
Parameters: expressed in transfected cells; host or cells: 293XLhTLR8 (HEK293)
Details: ASO 100 nM; relative to R848 only
Description: (§1) In such examples, potentiation of TLR8 activity can be identified by observation of an overall increased TLR8 response of the cell population, or a higher proportion of cells having TLR8-positive activity as compared to a negative control condition in which cells are treated with TLR8 agonist in the absence of the oligonucleotide (or in the presence of an appropriate control non-potentiating agent). In one example, 293XLhTLR8 (referred to as HEK-TLR8) cells are transfected with pNF-κB-Luc4 reporter, incubated with an oligonucleotide, and then stimulated with R848. TLR8 activity can be determined by a luciferase assay, which measures activated NF-κB by luminescence. TLR8 activity can also be analysed by measuring cytokine levels, for example by ELISA.
as §1, with “inhibition” for “potentiation”, “decreased” for “increased”, “lower” for “higher”, “positive” for “negative”, “inhibitory” for “non-potentiating”
For cGAS stimulations, cells were treated for indicated duration with ASOs, prior to transfection with ISD70 (human cells) or ISD45 (mouse cells) (the ASOs were not washed off prior to ISD transfection unless otherwise indicated). The cGAS ligands ISD45 (Stetson and Medzhitov, 2006) and ISD70 (also known as VACV-70 (Unterholzner et al., 2010)) (Table 1) were resuspended as follows: 5 1d of sense and 5 μl of antisense strands at 10 μg/μl were added to 90 μl PBS under sterile conditions, heated at 75° C. for 30 min, prior to letting cool down at room temperature and aliquoting (stock at 1 μg/1 l). The ISDs were transfected at a concentration of […] at a ratio of 1 μg:1 μl with Lipofectamine 2000 in Opti-MEM (Thermo Fisher Scientific). HEK-TLR3, HEK-TLR7 and […] were treated with indicated concentration of ASOs for 20-50 min, prior to stimulation with poly(I:C) (Invivogen), R848 (Invivogen), Motolimod (MedChemExpress) and the Class B CpG oligonucleotides ODN 2006 (synthesised by IDT and resuspended in RNase-free TE buffer [Table 1]), respectively. The TLR2/1 agonist PAM3CSK4 (Invivogen), the TLR4 agonist lipopolysaccharide (Invivogen), the Class B CpG oligonucleotides ODN 1826 (synthesised by IDT and resuspended in RNase-free TE buffer), the mouse Sting agonist DMXAA (Cayman) and the human STING agonist (compound #3 from (Raanjulu et al., 2018), referred to as GSK herein—kind gift from Cancer Therapeutics CRC, Australia) were used at indicated concentrations. Aspirin (Sigma—A2093) was resuspended in pure medium to 10 mM, filter sterilised and added to the cells at 2 mM final. All ASOs were synthesised by Integrated DNA Technologies (IDT), and resuspended in RNase-free TE buffer, pH 8.0 (Thermo Fisher Scientific). Cell viability was assessed by adding 1× fresh resazurin solution to the wells (10λ solution made up with 7 mg resazurin [Sigma—R7017] dissolved in 3.5 ml PBS, sterile filtered at […]) for 4 h, prior to reading at with a Fluostar OPTIMA (BMG LABTECH) plate-reader (fluorescence: Excitation 535 nm, Emission 590); wells with medium only and 1× resazurin were used as blanks.

Sequence	TLR8 100 nM (averaged NF-κB-Luciferase level relative to R848 condition, fold increase)
ACACTTCGTGGGGTCC (antisense; LNA-modified, pattern not given here) [HPRT LNA-665 V1]	0.422
CAACACTTCGTGGGGT (antisense; LNA-modified, pattern not given here) [HPRT LNA-667 V1]	0.591
CCAAGATCAGCAGTCT (antisense; LNA-modified, pattern not given here) [CTNN2B-2341 LNA KL]	1.015
CCATCCATGAGGTCCT (antisense; LNA-modified, pattern not given here) [CTNN2B-2545 LNA V1]	0.675
GATAGCACCTTCAGCA (antisense; LNA-modified, pattern not given here) [CTNN2B-1294 LNA KL]	0.821
GCAGGCTCAGTGATGT (antisense; LNA-modified, pattern not given here) [CTNN2B-1642 LNA V1]	0.638
GCATCCACCACGTCGT (antisense; LNA-modified, pattern not given here) [EGFR-3267 LNA V1]	0.607
GCCATCCACTTGATAG (antisense; LNA-modified, pattern not given here) [EGFR-2874 LNA V1]	0.440
GCCATGCTGGCTCGGA (antisense; LNA-modified, pattern not given here) [CAMSAP1-2584 LNA V1]	0.446
GCCATGTTTCTTCTTG (antisense; LNA-modified, pattern not given here) [MB21D1-1248 LNA KL]	0.430
GGCTGGAATCCGAGTT (antisense; LNA-modified, pattern not given here) [EGFR-4705 LNA KL]	0.562
GGTTACGGCTCAGTAT (antisense; LNA-modified, pattern not given here) [CAMSAP1-4295 LNA KL]	0.804
GTATCGAAAGAGTCTG (antisense; LNA-modified, pattern not given here) [EGFR-3908 LNA KL]	0.637
GTCCCCTGTTGACTGG (antisense; LNA-modified, pattern not given here) [HPRT LNA-489 KL]	0.335
GTCTTGGCTTCGTGGA (antisense; LNA-modified, pattern not given here) [MB21D1-522 LNA V1]	0.678
GTGTCTGGAAGCTTCC (antisense; LNA-modified, pattern not given here) [CTNN2B-809 LNA V1]	0.923
GTTCAGTCCTGTCCAT (antisense; LNA-modified, pattern not given here) [HPRT LNA-292 V1]	1.069
TCCAACACTTCGTGGG (antisense; LNA-modified, pattern not given here) [HPRT LNA-669 V1]	0.413
TCGTAGTTGCTTCCTA (antisense; LNA-modified, pattern not given here) [MB21D1-1181 LNA KL]	0.557
TGATGGCCTCCCATCT (antisense; LNA-modified, pattern not given here) [HPRT LNA-332 V1]	0.374
TGCACACTTCGTACCC (antisense; LNA-modified, pattern not given here) [CAMSAP1-4916 LNA V1]	0.411

Same assay, conditions: ASO 500 nM; relative to R848 only

Sequence	TLR8 500 nM (averaged NF-κB-Luciferase level relative to R848 condition, fold increase)
ACACTTCGTGGGGTCC (antisense; LNA-modified, pattern not given here) [HPRT LNA-665 V1]	1.029
CAACACTTCGTGGGGT (antisense; LNA-modified, pattern not given here) [HPRT LNA-667 V1]	0.690
CCAAGATCAGCAGTCT (antisense; LNA-modified, pattern not given here) [CTNN2B-2341 LNA KL]	2.920
CCATCCATGAGGTCCT (antisense; LNA-modified, pattern not given here) [CTNN2B-2545 LNA V1]	1.169
GATAGCACCTTCAGCA (antisense; LNA-modified, pattern not given here) [CTNN2B-1294 LNA KL]	2.863
GCAGGCTCAGTGATGT (antisense; LNA-modified, pattern not given here) [CTNN2B-1642 LNA V1]	1.440
GCATCCACCACGTCGT (antisense; LNA-modified, pattern not given here) [EGFR-3267 LNA V1]	0.738
GCCATCCACTTGATAG (antisense; LNA-modified, pattern not given here) [EGFR-2874 LNA V1]	0.681
GCCATGCTGGCTCGGA (antisense; LNA-modified, pattern not given here) [CAMSAP1-2584 LNA V1]	0.363
GCCATGTTTCTTCTTG (antisense; LNA-modified, pattern not given here) [MB21D1-1248 LNA KL]	0.431
GGCTGGAATCCGAGTT (antisense; LNA-modified, pattern not given here) [EGFR-4705 LNA KL]	0.577
GGTTACGGCTCAGTAT (antisense; LNA-modified, pattern not given here) [CAMSAP1-4295 LNA KL]	1.848
GTATCGAAAGAGTCTG (antisense; LNA-modified, pattern not given here) [EGFR-3908 LNA KL]	1.781
GTCCCCTGTTGACTGG (antisense; LNA-modified, pattern not given here) [HPRT LNA-489 KL]	0.304
GTCTTGGCTTCGTGGA (antisense; LNA-modified, pattern not given here) [MB21D1-522 LNA V1]	2.137
GTGTCTGGAAGCTTCC (antisense; LNA-modified, pattern not given here) [CTNN2B-809 LNA V1]	2.057
GTTCAGTCCTGTCCAT (antisense; LNA-modified, pattern not given here) [HPRT LNA-292 V1]	4.129
TCCAACACTTCGTGGG (antisense; LNA-modified, pattern not given here) [HPRT LNA-669 V1]	0.491
TCGTAGTTGCTTCCTA (antisense; LNA-modified, pattern not given here) [MB21D1-1181 LNA KL]	1.583
TGATGGCCTCCCATCT (antisense; LNA-modified, pattern not given here) [HPRT LNA-332 V1]	0.263
TGCACACTTCGTACCC (antisense; LNA-modified, pattern not given here) [CAMSAP1-4916 LNA V1]	0.370
